Assay results from patent US20260263481A1, “COMPOSITION FOR TREATING OR PREVENTING KIDNEY DISEASES” (ORGANOIDSCIENCES LTD., priority 2022, published 2026).

Experiments:
[1] = test system: human renal tubule cell line HK-2; assay: TUNEL assay for apoptosis in HK-2 cells; type: cell-based
Procedure: To evaluate the effect of PGF2α on kidney diseases, the influence of PGF2α on apoptosis in kidney cells induced by antibiotic treatment was assessed. Colistin, a type of antibiotic, is known to accumulate in proximal tubular cells and induce apoptosis by increasing the expression of the Fas death receptor or by increasing the generation of reactive oxygen species. […] After 48 hours of incubation, a TUNEL assay was conducted to assess apoptosis. Cells that tested positive in the TUNEL assay were considered apoptotic cells.
Specifically, a vehicle-treated group, a group treated with vehicle and colistin, and a group treated with bimatoprost and colistin were prepared. Apoptosis in HK-2 cells was analyzed using a TUNEL assay.

[2] = test system: human renal tubule cell line HK-2; assay: Cytotoxicity / cell viability assay in HK-2 cells
Procedure: Specifically, the human renal tubule cell line HK-2 was treated with PGF2α at a concentration of 50 μM and with colistin at 400 μg/mL. In the case of pretreatment with PGF2α, colistin was treated 24 hours after treatment with PGF2α, and the cells were cultured for 48 hours, followed by an assay to evaluate cytotoxicity. In the case of co-treatment, PGF2α and colistin were treated simultaneously, and the cells were cultured for 48 hours, followed by the assay.
Specifically, bimatoprost was treated to human renal tubule cell line HK-2 at concentrations of 0.1 μM, 0.5 μM, 1.0 μM, 5.0 μM, 10 μM, 20 μM, and 50 μM, and the vehicle-treated group was used as a control. In the case of pretreatment with bimatoprost, colistin was treated 24 hours after bimatoprost treatment, followed by incubation for 48 hours and a cytotoxicity assay. In the case of co-treatment, bimatoprost and colistin were treated simultaneously, followed by 48 hours of incubation and the cytotoxicity assay.

[3] = test system: Escherichia coli; assay: Paper disk antibacterial activity on LB medium; type: cell-based; settings: 24 hours; for growth of E. coli: substance alone on paper disk
Procedure: Specifically, Escherichia coli, a Gram-negative bacterium, was spread onto an LB medium, and paper disks were treated with bimatoprost and/or colistin. Saline containing 1% DMSO was used as a vehicle. After placing the paper disks onto the LB medium, incubation was carried out for 24 hours.

[4] = test system: C57BL/6N mice; assay: Colistin-induced nephrotoxicity model in mice; type: in vivo; settings: 14 days
Procedure: Specifically, a colistin-induced nephrotoxicity model was established using 6-week-old C57BL/6N mice. The control group (vehicle-treated group) was prepared by intraperitoneally injecting mice with vehicle (saline containing 1% DMSO) every 12 hours for 14 days. The colistin-treated group was prepared by intraperitoneally injecting colistin at 10 mg/kg every 12 hours for 14 days. The bimatoprost-treated group was prepared by intraperitoneally injecting bimatoprost at 1 mg/kg every 12 hours for 14 days. The bimatoprost and colistin co-treatment group was prepared by intraperitoneally injecting bimatoprost at 1 mg/kg and colistin at 10 mg/kg every 12 hours for 14 days. After 14 days of administration, tissue, blood, and kidneys were collected from the mice, and key indicators of kidney disease, including kidney color, body weight, blood urea nitrogen levels, blood creatinine levels, and expression of kidney injury marker-1 (KIM-1), were analyzed.

[5] = test system: human renal tubule cell line HK-2; assay: Reactive oxygen species (ROS) generation in HK-2 cells; type: cell-based
Procedure: After 48 hours of incubation, ROS generated in the HK-2 cells was analyzed.
Specifically, intracellular reactive oxygen species (ROS) levels were measured by fluorescence spectroscopy after treatment with bimatoprost and/or colistin. Saline containing 1% DMSO was used as a vehicle.

[6] = colistin 10 mg/kg i.p. every 12 hours
[7] = bimatoprost 1 mg/kg + colistin 10 mg/kg i.p. every 12 hours
[8] = PGF2α 50 μM co-treated with colistin 400 μg/mL, 48 hours

Molecule: colistin
- increase in apoptosis compared to cells not treated with colistin ([1]; colistin 400 μg/mL, 48 hours): approximately 30%
- apoptotic cells (TUNEL) ([1]; vehicle and colistin vs vehicle-treated group (Example 2-2)): significant increase in apoptotic cells
- cells survived compared to those not treated with colistin ([2]; colistin 400 μg/mL, 48 hours): about 50%
- growth of E. coli [3]: markedly suppressed
- KIM-1 expression in kidney [4, 6]: clearly observed
- blood creatinine levels relative to vehicle-treated group [4, 6]: approximately 1.5 times
- blood urea nitrogen levels relative to vehicle-treated group [4, 6]: approximately 1.5 times
- body weight [4, 6]: reduction in body weight after day 6
- kidney color [4, 6]: became paler
- ROS levels compared to cells not treated with colistin ([5]; colistin 400 μg/mL, 48 hours (Example 1-3)): more than fivefold
- increase in ROS levels compared to the vehicle-treated group ([5]; colistin-treated group (Example 2-3), fluorescence spectroscopy): more than 2.5 fold

Molecule: CCNC(=O)CCC/C=C\C[C@@H]1[C@@H](/C=C/[C@@H](O)CCc2ccccc2)[C@H](O)C[C@@H]1O [bimatoprost]
- number of apoptotic cells compared to the group treated with vehicle and colistin ([1]; bimatoprost and colistin co-treated): reduced by approximately threefold
- extent of cell death induced by colistin compared to cells not treated with bimatoprost ([2]; bimatoprost pretreated at 10 μM): reduced by approximately fourfold
- effect on colistin-induced cell death ([2]; bimatoprost pretreatment 24 hours before colistin, then 48 hours): reduced colistin-induced cell death
- inhibitory effect on E. coli growth ([3]; colistin and bimatoprost together on paper disk): at the same level as that observed in the group treated with colistin alone
- growth of E. coli [3]: not inhibited
- KIM-1 area compared to the colistin-treated group [4, 7]: reduced by about eight times
- KIM-1 expression in kidney [4, 7]: barely observed
- blood creatinine levels [4, 7]: lower than those in the colistin-treated group
- blood urea nitrogen levels [4, 7]: lower than those in the colistin-treated group
- body weight [4, 7]: weight loss was not observed
- kidney color [4, 7]: recovered to a level similar to that of the vehicle-treated group
- colistin-induced increase in ROS ([5]; bimatoprost and colistin, level similar to vehicle-treated group): reduced to approximately half

Molecule: CCCCC[C@H](O)/C=C/[C@@H]1[C@@H](C/C=C\CCCC(=O)O)[C@@H](O)C[C@H]1O [PGF2α, prostaglandin F2α]
- colistin-induced increase in apoptosis [1, 8]: reduced by about half
- reduction of colistin-induced increase in ROS [5, 8]: approximately 1.5 fold
- ROS levels ([5]; PGF2α alone, 50 μM, 48 hours): decreased
